Assay results from US4478849A, “Secondary amines, their preparation and use in pharmaceutical compositions” (Beecham Group Limited, priority 1978, dated 1984).

Key:
genetically obese mice = assay: carcass lipid of genetically obese mice after daily oral dosing for 28 days (anti-obesity); type: in vivo, mouse (genetically obese); conditions: for g - lipid per mouse, Treated: daily for 28 days; for anti-obesity activity (in words): general statement, no dose given
Description: (i) The compounds and a comparison compound (salbutamol) were dosed daily in water or carboxymethylcellulose suspension to genetically obese mice by oral gavage for 28 days. At the end of that time the carcass composition was determined.

blood glucose = assay: hypoglycaemic activity: reduction in area under blood glucose curve after glucose load in fasted mice; type: in vivo, female CFLP mice; conditions: for inhibition in vivo at 5 mg/kg / inhibition in vivo at 20 mg/kg: Mus musculus, po, 2 h; for anti-hyperglycaemic activity (in words): general statement, no dose given; for inhibition in vivo at 20 mg/kg: 20 mg/kg po
Description: Female CFLP mice, weighing approximately 25 g, were fasted for 24 hours prior to the study. The compounds under study were dosed orally (20 mg and 5 mg/kg) to each of 8 mice. 30 minutes later a blood sample ([…]) was obtained from the tail for the analysis of blood glucose. Immediately after taking this blood sample, each mouse was given a glucose load (1 g/kg body weight sub-cutaneously). Blood samples were then obtained from each mouse at 30 minute intervals for 120 minutes.
Compounds that produced a significant (P<0.05) reduction of blood glucose, compared with control mice given water, at any time interval were considered active. The area under the blood glucose curve over the 2 hour period after giving the glucose load was calculated for each compound and compared with the value for control animals. Thus a compound would give a 100% reduction in the area under the blood glucose curve if the blood glucose was maintained at the same level as in untreated fasted animals. Reduction in the glucose curve of more than 100% indicate that a compound, in spite of being given a glucose load, maintained blood glucose levels below that found in control fasted mice.

[1] = 10 mg/kg po, control 18.3 ± 0.6 (Ex. 7), 16.5 ± 0.7 (Ex. 16, 21)
[2] = 5 mg/kg po, 30 min before glucose load 1 g/kg sc, 2 hour period, versus control mice
[3] = 11 mg/kg po, control 18.9 ± 0.66 (Ex. 12), 17.0 ± 0.67 (Ex. 17)
[4] = 30 min before glucose load 1 g/kg sc, 2 hour period, versus control mice

Row | Compound | anti-obesity activity (in words) (genetically obese mice) | inhibition in vivo at 5 mg/kg (blood glucose; [2]) | anti-hyperglycaemic activity (in words) (blood glucose) | further results
1 | COC(=O)c1ccc(CC(C)NCC(O)c2ccc(O)c(CO)c2)cc1 (stereo not drawn) [21 (mp 140.5-143.5°), N-[2-(4-carbomethoxyphenyl)-1-methylethyl]-2-hydroxy-2-(4-hydroxy-3-hydroxymethylphenyl) ethanamine] |  |  |  | g - lipid per mouse, Treated (genetically obese mice; [1]): 12.7 ± 0.8 g; Reduction in area under blood glucose curve (%) (blood glucose; [2]): 153%
2 | COC(=O)c1ccc(CCC(C)NCC(O)c2ccc(O)c(CO)c2)cc1 (stereo not drawn) [Example 7] | particularly worthy of mention in view of their anti-obesity activity | 110% | particularly worthy of mention in view of their anti-hyperglycaemic activity | g - lipid per mouse, Treated (genetically obese mice; [1]): 14.3 ± 0.4 g
3 | COC(=O)c1ccc(OCC(C)NCC(O)c2ccc(O)c(CO)c2)cc1 (stereo not drawn) [Example 8, N-[2-(4-Carbomethoxyphenoxy)-1-methylethyl]-2-hydroxy-2-(4-hydroxy-3-hydroxymethylphenyl)ethanamine] |  |  |  | g - lipid per mouse, Treated (genetically obese mice; 21 mg/kg po, control 21.9 ± 0.5): 19.6 ± 0.4 g
4 | COC(=O)c1ccc(CC(C)NCC(O)c2ccc(O)c(CO)c2)c(F)c1 (stereo not drawn) [Example 9, N-[2-(4-Carbomethoxy-2-fluorophenyl)-1-methylethyl]-2-hydroxy-2-(4-hydroxy-3-hydroxymethylphenyl) ethanamine] |  | 47% |  | 
5 | COC(=O)c1ccc(CC(C)NCC(O)c2ccc(O)c(CO)c2)cc1OC (stereo not drawn) [Example 10, N-[2-(4-Carbomethoxy-3-methoxyphenyl)-1-methylethyl]-2-hydroxy-2-(4-hydroxy-3-hydroxymethylphenyl)ethanamine] | particularly worthy of mention in view of their anti-obesity activity |  |  | 
6 | COC(=O)c1ccc(CC(C)NCC(O)c2ccc(O)c(CO)c2)c(OC)c1 (stereo not drawn) [Example 12, N-[2-(4-Carbomethoxy-2-methoxyphenyl)-1-methylethyl]-2-hydroxy-2-(4-hydroxy-3-hydroxymethylphenyl)ethanamine] | particularly worthy of mention in view of their anti-obesity activity | 168% | particularly worthy of mention in view of their anti-hyperglycaemic activity | g - lipid per mouse, Treated (genetically obese mice; [3]): 16.2 ± 0.42 g
7 | CC(Cc1ccc(C(=O)OC(C)C)cc1)NCC(O)c1ccc(O)c(CO)c1 (stereo not drawn) [Example 13, N-[2-(4-Carboisopropoxyphenyl)-1-methylethyl]-2-hydroxy-2-(4-hydroxy-3-hydroxymethylphenyl)ethanamine] | particularly worthy of mention in view of their anti-obesity activity |  |  | 
8 | COC(=O)c1ccc(CC(C)NCC(O)c2ccc(O)c(CO)c2)cc1C (stereo not drawn) [Example 14, N-[2-(4-Carbomethoxy-3-methylphenyl)-1-methylethyl]-2-hydroxy-2-(4-hydroxy-3-hydroxymethylphenyl)ethanamine] | particularly worthy of mention in view of their anti-obesity activity |  |  | g - lipid per mouse, Treated (genetically obese mice; 10.5 mg/kg po, control 17.0 ± 0.67): 14.3 ± 0.61 g
9 | CCOC(=O)c1ccc(CC(C)NCC(O)c2ccc(O)c(CO)c2)cc1 (stereo not drawn) [Example 16, N-[2-(4-Carboethoxyphenyl)-1-methylethyl]-2-hydroxy-2-(4-hydroxy-3-hydroxymethylphenyl) ethanamine] | particularly worthy of mention in view of their anti-obesity activity |  |  | g - lipid per mouse, Treated (genetically obese mice; [1]): 12.9 ± 0.8 g
10 | COC(=O)c1ccc(CCCC(C)NCC(O)c2ccc(O)c(CO)c2)cc1 (stereo not drawn) [Example 17] | particularly worthy of mention in view of their anti-obesity activity | 84% | particularly worthy of mention in view of their anti-hyperglycaemic activity | g - lipid per mouse, Treated (genetically obese mice; [3]): 14.0 ± 0.97 g
11 | COC(=O)c1ccc(C(C)NCC(O)c2ccc(O)c(CO)c2)cc1 (stereo not drawn) [Example 18] |  |  |  | inhibition in vivo at 20 mg/kg (blood glucose; [4]): 25%
12 | COC(=O)c1ccc(CC(C)NCC(O)c2ccc(O)c(O)c2)cc1 (stereo not drawn) [Example 19, N-(2-[4-Carbomethoxyphenyl]-1-methylethyl)-2-(3,4-dihydroxyphenyl)-2-hydroxyethanamine] |  |  | particularly worthy of mention in view of their anti-hyperglycaemic activity | 
13 | COC(=O)c1ccc(CC(C)NCC(O)c2ccccc2)c(Cl)c1 (stereo not drawn) [Example 23, N-(2-[4-Carbomethoxy-2-chlorophenyl]-1-methylethyl)-2-hydroxy-2-phenylethanamine] | particularly worthy of mention in view of their anti-obesity activity |  |  | 
14 | COC(=O)c1ccc(CC(C)NCC(O)c2ccccc2)c(OC)c1 (stereo not drawn) [Example 24, N-(2-[4-Carbomethoxy-2-methoxyphenyl]-1-methylethyl)-2hydroxy-2-phenylethanamine] | particularly worthy of mention in view of their anti-obesity activity |  |  | 
15 | COC(=O)c1ccc(CCNCC(O)c2ccccc2)cc1 (stereo not drawn) [Example 25, N-(2-[4-Carbomethoxyphenyl]ethyl)-2-hydroxy-2-phenylethanamine] |  | 179% | particularly worthy of mention in view of their anti-hyperglycaemic activity | 
16 | COC(=O)c1ccc(CC(C)(C)NCC(O)c2ccccc2)cc1 (stereo not drawn) [Example 26, N-(2-[4-Carbomethoxyphenyl]-1,1-dimethylethyl)-2-hydroxy-2-phenylethanamine] | particularly worthy of mention in view of their anti-obesity activity |  |  | g - lipid per mouse, Treated (genetically obese mice; 9 mg/kg po, control 18.9 ± 0.66): 16.4 ± 1.2 g
17 | COC(=O)c1ccc(CCNCC(O)c2ccccc2Cl)cc1 (stereo not drawn) [Example 27, N-(2-[4-Carbomethoxyphenyl]ethyl)-2-(2-chlorophyenyl)-2-hydroxyethanamine] |  | 38% |  | 
18 | COC(=O)c1ccc(CC(C)(C)NCC(O)c2ccc(O)c(CO)c2)cc1 (stereo not drawn) [Example 31, N-(2-[4-Carbomethoxyphenyl]-1,1-dimethylethyl)-2-hydroxy-2-(4-hydroxy-3-hydroxymethylphenyl) ethanamine] |  | 139% | particularly worthy of mention in view of their anti-hyperglycaemic activity | 
19 | COC(=O)c1ccc(CC(C)NCC(O)c2ccc(O)cc2Cl)cc1 (stereo not drawn) [Example 33, N-(2-[4-Carbomethoxyphenyl]-1-methylethyl)-2-(2-chloro-4-hydroxyphenyl)-2-hydroxyethanamine] |  | 88% | particularly worthy of mention in view of their anti-hyperglycaemic activity | 
20 | COC(=O)c1ccc(CC(C)NCC(O)c2ccc(O)c(N)c2)cc1 (stereo not drawn) [Example 34] |  |  |  | inhibition in vivo at 20 mg/kg (blood glucose; [4]): 61%
21 | COC(=O)c1ccc(C[C@@H](C)NCC(O)c2ccc(O)c(CO)c2)cc1 (stereo partly drawn) [Example 35, N-(1-(R)-2-[4-Carbomethoxyphenyl]-1-methylethyl)-2-hydroxy-2-(4-hydroxy-3-hydroxymethylphenyl)ethanamine] | particularly worthy of mention in view of their anti-obesity activity |  |  | 
22 | COC(=O)c1ccc(C[C@H](C)NCC(O)c2ccc(O)c(CO)c2)cc1 (stereo partly drawn) [Example 36, N-(1-(S)-2-[4-Carbomethoxyphenyl]-1-methylethyl)-2-hydroxy-2-(4-hydroxy-3-hydroxymethylphenyl)ethanamine] |  | 79% | particularly worthy of mention in view of their anti-hyperglycaemic activity | 
23 | COC(=O)c1ccc(CC(C)NCC(O)c2ccc(O)c(NS(C)(=O)=O)c2)cc1 (stereo not drawn) [Example 37, N-(2-[4-Carbomethoxyphenyl]-1-methylethyl)-2-(4-hydroxy-3-methanesulphonamidophenyl)-2-hydroxyethanamine] | particularly worthy of mention in view of their anti-obesity activity |  |  | 
24 | COC(=O)c1ccc(CC(C)NCC(O)c2ccc(O)c(NC(C)=O)c2)cc1 (stereo not drawn) [Example 38, N-(2-[4-Carbomethoxyphenyl]-1-methylethyl)-2-(3-acetamido-4-hydroxyphenyl)-2-hydroxyethanamine] |  | 59% |  | 
25 | COC(=O)c1ccc(CC(C)NCC(O)c2ccc(O)c(CS(C)(=O)=O)c2)cc1 (stereo not drawn) [Example 39, N-(2-[4-Carbomethoxyphenyl]-1-methylethyl)-2-(4-hydroxy-3-methylsulphonylmethylphenyl)-2-hydroxyethanamine] |  | 83% | particularly worthy of mention in view of their anti-hyperglycaemic activity | 
26 | CC(Cc1ccc(C(=O)O)cc1)NCC(O)c1ccccc1 (stereo not drawn) [Example 44, N-[2-(4-Carboxyphenyl)-1-methylethyl]-2-hydroxy-2-phenylethanamine] | particularly worthy of mention in view of their anti-obesity activity |  |  | 
27 | CC(C)(C)NCC(O)c1ccc(O)c(CO)c1 (stereo not drawn) [Salbutamol, reference compound] |  |  |  | g - lipid per mouse, Treated (genetically obese mice; 25 mg/kg po, control 23.0 ± 0.3): 23.1 ± 0.6 g
